Reference: PubChem BioAssay AID328 (DTP/NCI, 2004)
Values joined by “and” are separate entries in the source; they are usually repeats but may differ in a detail not shown here. Equal entries are not always repeated. Inconclusive results and toxic doses are left out.

System: BDF1 mice, P388 leukemia ip, median survival T/C
Test: NCI In Vivo Anticancer Drug Screen. Data for tumor model P388 Leukemia (intraperitoneal) in B6D2F1 (BDF1) mice
Details: endpoint: median survival time, higher = longer survival
Method in brief: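 Antitumour effect was judged in vivo: survival in drug-treated mice, normalised to that of vehicle-dosed controls, gives the reported T/C.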

[1] = dose: 100.0 mg/kg/injection, schedule: Q01DX009 (ip), vehicle: saline
[2] = dose: 100.0 mg/kg/injection, schedule: Q04DX003 (ip), vehicle: saline with Tween-80
[3] = dose: 200.0 mg/kg/injection, schedule: Q04DX003 (ip), vehicle: saline with Tween-80
[4] = dose: 400.0 mg/kg/injection, schedule: Q04DX003 (ip), vehicle: saline with Tween-80
[5] = dose: 50.0 mg/kg/injection, schedule: Q01DX009 (ip), vehicle: saline with Tween-80
[6] = dose: 100.0 mg/kg/injection, schedule: Q01DX009 (ip), vehicle: saline with Tween-80
[7] = dose: 5.0 mg/kg/injection, schedule: Q04DX003 (ip), vehicle: saline
[8] = dose: 10.0 mg/kg/injection, schedule: Q04DX003 (ip), vehicle: saline
[9] = dose: 20.0 mg/kg/injection, schedule: Q04DX003 (ip), vehicle: saline
[10] = dose: 100.0 mg/kg/injection, schedule: Q04DX003 (ip), vehicle: Klucel (hydroxypropylcellulose) (HPC)
[11] = dose: 400.0 mg/kg/injection, schedule: Q04DX003 (ip), vehicle: Klucel (hydroxypropylcellulose) (HPC)

## COc1cc2c(c(OC)c1OC)-c1ccc(OC)c(=O)cc1[C@@H](NC(C)=O)CC2
dose: 0.04 mg/kg/injection, schedule: Q01DX010 (ip), vehicle: saline
  T/C: 122 % of control
dose: 0.13 mg/kg/injection, schedule: Q01DX009 (ip), vehicle: water
  T/C: 171 % of control
dose: 0.16 mg/kg/injection, schedule: Q01DX010 (ip), vehicle: saline
  T/C: 181 % of control
dose: 0.25 mg/kg/injection, schedule: Q01DX009 (ip), vehicle: water
  T/C: 173 % of control
dose: 0.32 mg/kg/injection, schedule: Q01DX010 (ip), vehicle: saline
  T/C: 154 % of control and 181 % of control
dose: 0.64 mg/kg/injection, schedule: Q01DX010 (ip), vehicle: saline
  T/C: 163 % of control
dose: 250.0 micrograms/kg/injection, schedule: Q01DX009 (ip), vehicle: saline
  T/C: 153 % of control
dose: 500.0 micrograms/kg/injection, schedule: Q01DX009 (ip), vehicle: saline
  T/C: 235 % of control
dose: 1000.0 micrograms/kg/injection, schedule: Q01DX009 (ip), vehicle: saline
  T/C: 222 % of control

## CSc1ccc(C(O)CNC(C)C)cc1C (stereo not given)
dose: 50.0 mg/kg/injection, schedule: Q01DX009 (ip), vehicle: saline
  T/C: 100 % of control
[1]
  T/C: 100 % of control

## O=C(CCCCC(=O)N/N=C\c1ccccn1)N/N=C\c1ccccn1
dose: 100.0 mg/kg/injection, schedule: Q04DX003 (ip), vehicle: saline
  T/C: 104 % of control
dose: 200.0 mg/kg/injection, schedule: Q04DX003 (ip), vehicle: saline
  T/C: 100 % of control
dose: 400.0 mg/kg/injection, schedule: Q04DX003 (ip), vehicle: saline
  T/C: 109 % of control

## O=C1CCc2c(Br)cccc21
[2]
  T/C: 110 % of control
[3]
  T/C: 115 % of control
[4]
  T/C: 110 % of control

## CC1(C)CC(=O)C(C)(C)C(=O)C1
dose: 3.0 mg/kg/injection, schedule: Q04DX003 (ip), vehicle: saline with Tween-80
  T/C: 95 % of control
dose: 6.0 mg/kg/injection, schedule: Q04DX003 (ip), vehicle: saline with Tween-80
  T/C: 108 % of control
dose: 6.25 mg/kg/injection, schedule: Q01DX009 (ip), vehicle: saline with Tween-80
  T/C: 100 % of control
dose: 12.0 mg/kg/injection, schedule: Q04DX003 (ip), vehicle: saline with Tween-80
  T/C: 100 % of control
dose: 12.5 mg/kg/injection, schedule: Q01DX009 (ip), vehicle: saline with Tween-80
  T/C: 104 % of control
dose: 25.0 mg/kg/injection, schedule: Q04DX003 (ip), vehicle: saline with Tween-80
  T/C: 95 % of control

## O=NN(CCCl)C(=O)Nc1ccc(CCCl)cc1
dose: 37.5 mg/kg/injection, schedule: Q01DX009 (ip), vehicle: other
  T/C: 90 % of control
dose: 37.5 mg/kg/injection, schedule: Q04DX003 (ip), vehicle: other
  T/C: 120 % of control
dose: 66.0 mg/kg/injection, schedule: Q04DX003 (ip), vehicle: other
  T/C: 90 % of control
dose: 75.0 mg/kg/injection, schedule: Q01DX009 (ip), vehicle: other
  T/C: 100 % of control
dose: 75.0 mg/kg/injection, schedule: Q04DX003 (ip), vehicle: other
  T/C: 120 % of control
dose: 99.0 mg/kg/injection, schedule: Q04DX003 (ip), vehicle: other
  T/C: 95 % of control
dose: 150.0 mg/kg/injection, schedule: Q01DX009 (ip), vehicle: other
  T/C: 105 % of control
dose: 150.0 mg/kg/injection, schedule: Q04DX003 (ip), vehicle: other
  T/C: 255 % of control and 95 % of control
dose: 225.0 mg/kg/injection, schedule: Q04DX003 (ip), vehicle: other
  T/C: 100 % of control

## CSCCCNC(=O)c1csc(-c2csc(CCNC(=O)C(F)(F)F)n2)n1
[5]
  T/C: 103 % of control
[6]
  T/C: 114 % of control
dose: 200.0 mg/kg/injection, schedule: Q01DX009 (ip), vehicle: saline with Tween-80
  T/C: 87 % of control

## COc1cc(N(CCCl)CCCl)c(OC)cc1/C=N\Nc1nncn1N
dose: 2.2 mg/kg/injection, schedule: Q01DX009 (ip), vehicle: saline
  T/C: 168 % of control
dose: 3.3 mg/kg/injection, schedule: Q01DX009 (ip), vehicle: saline
  T/C: 163 % of control
dose: 5.0 mg/kg/injection, schedule: Q01DX009 (ip), vehicle: saline
  T/C: 186 % of control
[7]
  T/C: 179 % of control
dose: 6.25 mg/kg/injection, schedule: Q01DX009 (ip), vehicle: saline
  T/C: 172 % of control
dose: 7.5 mg/kg/injection, schedule: Q01DX009 (ip), vehicle: saline
  T/C: 240 % of control
[8]
  T/C: 212 % of control
dose: 12.5 mg/kg/injection, schedule: Q01DX009 (ip), vehicle: saline
  T/C: 90 % of control
[9]
  T/C: 108 % of control
dose: 25.0 mg/kg/injection, schedule: Q01DX009 (ip), vehicle: saline
  T/C: 86 % of control
dose: 25.0 mg/kg/injection, schedule: Q04DX003 (ip), vehicle: saline sonified
  T/C: 177 % of control

## Cc1ccc2c(C)c3c(ccc4ccccc43)c[n+]2c1
dose: 1.25 mg/kg/injection, schedule: Q01DX009 (ip), vehicle: Klucel (hydroxypropylcellulose) (HPC)
  T/C: 115 % of control
dose: 1.25 mg/kg/injection, schedule: Q01DX009 (ip), vehicle: saline
  T/C: 115 % of control
dose: 2.5 mg/kg/injection, schedule: Q01DX009 (ip), vehicle: Klucel (hydroxypropylcellulose) (HPC)
  T/C: 120 % of control
dose: 2.5 mg/kg/injection, schedule: Q01DX009 (ip), vehicle: saline
  T/C: 100 % of control
dose: 2.5 mg/kg/injection, schedule: Q04DX003 (ip), vehicle: saline
  T/C: 100 % of control
[7]
  T/C: 104 % of control
dose: 10.0 mg/kg/injection, schedule: Q01DX009 (ip), vehicle: saline
  T/C: 90 % of control
[8]
  T/C: 116 % of control
[9]
  T/C: 120 % of control

## CC(=O)NC(CCC(=O)C=[N+]=N)C(=O)O (stereo not given)
dose: 0.05 mg/kg/injection, schedule: Q01DX010 (ip), vehicle: other
  T/C: 115 % of control
dose: 0.1 mg/kg/injection, schedule: Q01DX010 (ip), vehicle: other
  T/C: 110 % of control
dose: 0.2 mg/kg/injection, schedule: Q01DX010 (ip), vehicle: other
  T/C: 120 % of control
dose: 0.6 mg/kg/injection, schedule: Q01DX010 (ip), vehicle: other
  T/C: 154 % of control
dose: 0.8 mg/kg/injection, schedule: Q01DX010 (ip), vehicle: other
  T/C: 168 % of control
dose: 1.0 mg/kg/injection, schedule: Q01DX010 (ip), vehicle: other
  T/C: 100 % of control

## Cc1cccc(/C=N\OCc2ccccc2)n1
[2]
  T/C: 118 % of control
dose: 132.0 mg/kg/injection, schedule: Q04DX003 (ip), vehicle: saline with Tween-80
  T/C: 104 % of control
[3]
  T/C: 100 % of control
dose: 300.0 mg/kg/injection, schedule: Q04DX003 (ip), vehicle: saline with Tween-80
  T/C: 108 % of control
[4]
  T/C: 118 % of control

## O=c1onc(-c2ccc(Cl)cc2)c2ccccc12
dose: 25.0 mg/kg/injection, schedule: Q01DX009 (ip), vehicle: saline with Tween-80
  T/C: 105 % of control
[5]
  T/C: 94 % of control
[6]
  T/C: 102 % of control

## CSP12(OCCO1)OCCO2
dose: 50.0 mg/kg/injection, schedule: Q01DX005 (ip), vehicle: saline
  T/C: 94 % of control
dose: 100.0 mg/kg/injection, schedule: Q01DX005 (ip), vehicle: saline
  T/C: 94 % of control
dose: 200.0 mg/kg/injection, schedule: Q01DX005 (ip), vehicle: saline
  T/C: 91 % of control

## COC(=O)c1cc(=O)n(-c2ccccc2C(F)(F)F)c(SC)n1
[10]
  T/C: 116 % of control
[11]
  T/C: 123 % of control

## NC(=O)c1cc(Cl)nc2nc(Cl)nc(N)c12
dose: 50.0 mg/kg/injection, schedule: Q04DX003 (ip), vehicle: saline with Tween-80
  T/C: 105 % of control
[2]
  T/C: 104 % of control and 109 % of control
[3]
  T/C: 116 % of control and 117 % of control
[4]
  T/C: 116 % of control and 122 % of control

## CC(O)C(O)C(O)C(/C=N\NC(N)=S)=N/NC(N)=S (stereo not given)
[1]
  T/C: 92 % of control
dose: 200.0 mg/kg/injection, schedule: Q01DX009 (ip), vehicle: saline
  T/C: 100 % of control
dose: 400.0 mg/kg/injection, schedule: Q01DX009 (ip), vehicle: saline
  T/C: 88 % of control

## O=C([CH-]C(=O)C(F)(F)F)c1ccccc1.O=C([CH-]C(=O)C(F)(F)F)c1ccccc1.O=C([CH-]C(=O)C(F)(F)F)c1ccccc1.O=C([CH-]C(=O)C(F)(F)F)c1ccccc1.[Eu+3].c1ccncc1
dose: 100.0 mg/kg/injection, schedule: Q01DX009 (ip), vehicle: Klucel (hydroxypropylcellulose) (HPC)
  T/C: 113 % of control

## OCc1cc2ccccc2cc1O
[10]
  T/C: 90 % of control
dose: 200.0 mg/kg/injection, schedule: Q04DX003 (ip), vehicle: Klucel (hydroxypropylcellulose) (HPC)
  T/C: 109 % of control
[11]
  T/C: 104 % of control
